Reference: publication PMC3806745, “Selective Inhibition of Matrix Metalloproteinase-9 Attenuates Secondary Damage Resulting from Severe Traumatic Brain Injury” (PLoS ONE, 2013)

Tests used:
[1] = Regional brain distribution of SB-3CT and p-OH SB-3CT after repeated i.p. SB-3CT; type: in vivo, mouse; conditions: mice
Method: (§1) Under anesthesia, terminal blood was collected in heparin tubes through the posterior vena cava at various time points after the last dose, and tubes were centrifuged to collect plasma. Whole brain samples were harvested after transcardiac perfusion with saline and immediately flash frozen in liquid nitrogen and stored at −80°C until analysis. […] At 10 minutes after the last dose, whole brain samples were rapidly dissected into different regions (cortex, striatum, hippocampus, cerebellum and brain stem), and immediately frozen in dry ice.
(§2) A 75-µL aliquot of plasma was mixed with 150 µL of internal standard in acetonitrile. The sample was centrifuged at 10,000×g for 10 minutes. Brain samples were weighed and homogenized for 5 minutes in one volume equivalent of cold acetonitrile, containing an internal standard, using a bullet blender (Next Advance, Inc., Averill Park, NY). For regional brain distribution, the striatum, hippocampus, cerebellum and brain stem samples were pooled from 3 different mice for analysis.
The homogenates were centrifuged twice at 20,000×g for 20 minutes at 4°C. […] Quantification was performed using peak area ratios relative to the internal standard and linear regression parameters were calculated from the calibration curve standards prepared in blank mouse plasma (and blank brain). The internal standard used in all of the analyses was N-(4-(4-((thiiran-2-ylmethyl)sulfonyl)phenoxy)phenyl)methanesulfonamide [43], which was analyzed by MRM using the transition 398→261. The chromatographic, MRM conditions, and method validation were the same as previously described [17].

MMP-9 = conditions: cited from earlier work
[2] = Plasma and brain levels and pharmacokinetics of SB-3CT and p-OH SB-3CT after repeated i.p. SB-3CT (UPLC/ESI-MRM); conditions: mice
Method: as §1, §2
The homogenates were centrifuged twice at 20,000×g for 20 minutes at 4°C. […] Quantification was performed using peak area ratios relative to the internal standard and linear regression parameters were calculated from the calibration curve standards prepared in blank mouse plasma (and blank brain). The internal standard used in all of the analyses was N-(4-(4-((thiiran-2-ylmethyl)sulfonyl)phenoxy)phenyl)methanesulfonamide [43], which was analyzed by MRM using the transition 398→261.
Pharmacokinetic parameters were calculated as follows. The area under the mean concentration-time curve up to the last quantifiable sampling time (AUC 0–last) was calculated by the trapezoidal rule using the pharmacokinetic software PK Solutions (Version 2.0, Summit Research Services, Montrose, CO). The AUC-time curve from time zero to infinity (AUC 0–∞), representing systemic exposure of a therapeutic agent in the body, was calculated as AUC 0–last+(C last/k), where C last is the concentration at the last quantifiable sampling time and k is the elimination rate constant. Half-lives (t ½α and t ½β) were estimated from the linear segment of the initial or terminal portion of the concentration-time data by linear regression, where the slope of the line was the rate constant k and t ½ = ln 2/k.

[3] = 10 minutes after the last i.p. dose of SB-3CT
[4] = repeated 25 mg/kg i.p. SB-3CT, 20 min after last dose
[5] = repeated 25 mg/kg i.p. SB-3CT, 30 min after last dose

O=S(=O)(CC1CS1)c1ccc(Oc2ccc(O)cc2)cc1 (stereo not shown) [p-OH SB-3CT]
Conc, whole brain ([1]; 10 minutes after the last i.p. dose of SB-3CT (25 mg/kg at 0, 2, 24 h)): 0.14±0.04 pmole/mg tissue
Conc, brain stem [1, 3]: 0.13±0.03 pmole/mg tissue
Conc, cerebellum [1, 3]: 0.13±0.03 pmole/mg tissue
Conc, cortex [1, 3]: 0.16±0.05 pmole/mg tissue
Conc, hippocampus [1, 3]: 0.11±0.03 pmole/mg tissue
Conc, plasma [1, 3]: 120 ± 30 nM
Conc, striatum [1, 3]: 0.12±0.04 pmole/mg tissue
Ratio of concentration, brain stem to plasma [1, 3]: 1.1±0.4
Ratio of concentration, cerebellum to plasma [1, 3]: 1.1±0.4
Ratio of concentration, cortex to plasma [1, 3]: 1.3±0.5
Ratio of concentration, hippocampus to plasma [1, 3]: 0.92±0.34
Ratio of concentration, striatum to plasma [1, 3]: 1.0±0.4
Ratio of concentration, whole brain to plasma [1, 3]: 1.2±0.4
Ki (MMP-9): 160 nM
AUC 0–last, brain ([2]; repeated 25 mg/kg i.p. SB-3CT): 2.98 pmol·min/mg
AUC 0–last, plasma ([2]; repeated 25 mg/kg i.p. SB-3CT): 1.45 µM·min
AUC 0–∞, brain ([2]; repeated 25 mg/kg i.p. SB-3CT): 4.61 pmol·min/mg
t ½α, brain ([2]; repeated 25 mg/kg i.p. SB-3CT): 4.2 min
t ½α, plasma ([2]; repeated 25 mg/kg i.p. SB-3CT): 3.4 min
t ½β (elimination half-life), brain ([2]; repeated 25 mg/kg i.p. SB-3CT): 187 min
Brain concentration ([2]; repeated 25 mg/kg i.p. SB-3CT (0, 2, 24 h), 10 min after last dose): 0.14±0.04 pmole/mg tissue
Plasma concentration ([2]; repeated 25 mg/kg i.p. SB-3CT, 10 min after last dose): 120 ± 30 nM
Brain concentration [2, 4]: 0.026±0.005 pmole/mg tissue
Plasma concentration [2, 4]: 16 ± 4 nM
Brain concentration [2, 5]: 0.015±0.004 pmole/mg tissue
Plasma concentration [2, 5]: 6 ± 1 nM
Brain concentration ([2]; repeated 25 mg/kg i.p. SB-3CT, 60 min after last dose): 0.011±0.007 pmole/mg tissue
Brain concentration ([2]; repeated 25 mg/kg i.p. SB-3CT, 90 min after last dose): 0.0081±0.0022 pmole/mg tissue
Brain concentration ([2]; repeated 25 mg/kg i.p. SB-3CT, 120 min after last dose): 0.0076±0.0009 pmole/mg tissue
Brain concentration ([2]; repeated 25 mg/kg i.p. SB-3CT, 180 min after last dose): 0.0060±0.0004 pmole/mg tissue
Brain AUC /Plasma AUC ([2]; ratio of AUC 0–last, repeated 25 mg/kg i.p. SB-3CT): 2.1
